{"source": "patent US20210251955A1", "about": "“PREVENTION OF AGE RELATED CLONAL HEMATOPOIESIS AND DISEASES ASSOCIATED THEREWITH” (Yeda Research and Development Co. Ltd., priority 2018, published 2021)", "key": {"[1]": {"tested_on": "K562 cells (parental, SF3B1^K700E, SRSF2^P95H)", "assay": "RNA-sequencing of parental K562 and isogenic SF3B1^K700E and SRSF2^P95H lines, differential splicing", "type": "cell-based", "conditions": "for Splicing changes relative to DMSO treatment: at the IC50 of each drug in parental K562 cells, regardless of mutation status", "from_the_text": "(§1) FIGS. 5A-D illustrate the preferential response of spliceosomal mutant hematopoietic cells to indisulam. (FIG. 5A) IC50 plots of isogenic K562 (left) and NALM-6 (right) cells to indisulam. These are cell with introduction of a spliceosomal gene mutation into the endogenous locus. (FIG. 5B) Western blots of RBM39 in the K562 cells from (FIG. 5A) at increasing doses of indisulam. (FIG. 5C) Log10 IC50 waterfall plots of response of AML cell lines with naturally occurring mutations in splicing factors to indisulam. Red bars represent cells with naturally occurring mutations in splicing factors. (FIG. 5D) Bar plot of number of differential splicing events across parental, SF3B1^K700E/WT, and SRSF2^P95H/WT K562 cells. The numbers above each bar indicate number of differentially spliced events.\nIdentification and Quantification of Differential Splicing\nIsoform ratios for all alternative splicing events were quantified using MISO v2.0. Constitutively spliced exons and introns were quantified using junction-spanning reads. The conditional knockin and knockout mice were compared in a pair-wise manner, and for each pair the analysis was restricted to splicing events with 20 or more reads supporting either or both isoforms, and where the event was alternatively spliced in the sample pair. […] The human AML samples were analyzed by calculating the median isoform ratios across all 28 SRSF2 wildtype samples, and comparing that in a pair-wise manner to each SRSF2 mutant sample, using the same methodology as for the knockin and knockout mice. The Mx1-Cre^+Srsf2^+/+ or Mx1-Cre^+Srsf2^P95H/+E7107-treated mice were compared in a pair-wise manner against the median isoform ratios of their vehicle-treated counterparts, using the same methodology. For the MLL-AF9 AML transformed mice there were sufficient replicates to do a group-based comparison within the Srsf2P95H and wildtype genotypes individually (N=5 for each genotype-treatment combination). E7107- and vehicle-treated mice were compared in a two-sided Wilcoxon rank-sum test, using the total number of isoform reads within each treatment group.\nIn parallel, RNA-seq was carried out of the same cell lines treated with E7107, a small molecule that inhibits splicing through impeding binding of SF3B1 to the branch point [Finci et al., Genes & Dev. (2018) 32: 309-320].\nThus, both genetic as well pharmacologic degradation of RBM39 disrupts splicing as well as other pathways required for leukemogenicity."}, "spliceosomal-mutant AML": {"tested_on": "spliceosomal-mutant AML", "conditions": "Lee et al. Nat Med (2016); cited from earlier work"}, "[2]": {"tested_on": "spliceosomal-mutant leukemias", "conditions": "PDX, Lee et al. Nat Med (2016); cited from earlier work"}, "[3]": {"tested_on": "panel of 18 genetically diverse AML cell lines", "assay": "Cell viability upon sulfonamide exposure across a panel of 18 AML cell lines", "type": "cell-based", "from_the_text": "(§2) The effects of indisulam and the sulfonamide analogue, E7820, were first examined across a panel of 18 genetically diverse AML cell lines."}, "[4]": {"tested_on": "isogenic K562, TF-1 and NALM-6 cells expressing mutations in SF3B1, SRSF2, U2AF1", "assay": "Growth inhibition of isogenic leukemia lines with or without spliceosomal hotspot mutations", "type": "cell-based", "conditions": "isogenic K562, TF-1, NALM-6", "method": "(§3) (FIG. 4A) Sulfonamides bridge RBM39 to the CUL4-DDB1-DDA1-DCAF15 E3 ubiquitin ligase complex, leading to polyubiquitination and proteasomal degradation of RBM39. IC50 curves of the sulfonamide E7820 in isogenic (FIG. 4B) K562 and (FIG. 4C) NALM6 WT or mutant for SF3B1. (FIG. 4D) Western blots of RBM39 levels+[…] of the sulfonamides Indusulam or E7820 from the cells in (FIG. 4C).\nas §1, §2"}, "parental K562 cells": {"tested_on": "parental K562 cells", "assay": "IC50 in parental K562 cells", "type": "cell-based", "conditions": "Homo sapiens"}, "RBM39": {"molecular_target": "T1, RBM39 (Homo sapiens, UniProt Q14498+Q66K64)", "T1 construct": "endogenous in cells; host or cells: isogenic K562 / NALM-6 (and TF-1) leukemia cells, wild type or with knock-in of spliceosomal gene mutations", "assay": "RBM39 protein levels (Western blot) in isogenic leukemia cell lines", "type": "cell-based", "method": "as §3, §1\nThe effects of indisulam and the sulfonamide analogue, E7820, were first examined across a panel of 18 genetically diverse AML cell lines. […]"}, "[5]": {"tested_on": "Srsf2^P95H/WT MLL-AF9 AML cells", "assay": "In vitro viability (MTS) of isogenic murine MLL-AF9 AML cells, Srsf2 WT vs Srsf2 mutant", "type": "cell-based", "from_the_text": "FIGS. 1A-E illustrate the effects of PRMT inhibition on splicing. (FIG. 1A) Diagram of the role of PRMT5 and the type I PRMTs in splicing regulation. PRMTs methylate arginines on splicing proteins to promote spliceosome assembly and are required for proper splicing function. IC50 curves of spliceosomal mutant acute myeloid leukemia cells or their WT counterparts exposed to (FIG. 1B) the PRMT5 inhibitor GSK591 or (FIG. 1C) the PRMT1 inhibitor MS-023. Western blots of (FIG. 1D) symmetric dimethyl arginine (SDMA) or (FIG. 1E) asymmetric dimethyl arginine (ADMA) from the cells in (FIG. 1B) and […] respectively.\nFIG. 2 illustrates drug sensitivity of AML cells with SMMs or partial loss of PRMT5 to inhibitors of splicing, PRMTs, or LSD1. MLL-AF9 Srsf2^WT/WT; MLL-AF9 Srsf2^P95H/WT or MLL-AF9 Prmt5^+/− cells were treated for 7 days with the indicated compounds in 384 wells (5 increasing concentrations per compound). Viability at day 7 was scored by MTS assay and reported as the ratio over control treated cells (with equivalent dilution of DMSO). The experiment was conducted in biological triplicate, and each individual run was repeated in technical triplicate. […]\nOf note, the SF3B1 inhibitor, E7107, was used in the same assays as a positive control. […] Viability at day 7 was scored by MTS assay and reported as the ratio over control treated cells (with equivalent dilution of DMSO). […]"}, "[6]": {"tested_on": "SF3B1 as well as SRSF2-mutant AML and chronic myelomonocytic leukemia (CMML)", "conditions": "Seiler et al., Nature Medicine (2018); cited from earlier work"}}, "note": "“Also recorded” adds a separate entry of the source.", "data": [{"compound": "CC[C@H](O)[C@@H](C)[C@H]1O[C@@H]1C[C@@](C)(O)/C=C/C=C(\\C)[C@H]1OC(=O)C[C@H](O)CC[C@@](C)(O)[C@@H](OC(=O)N2CCN(C3CCCCCC3)CC2)/C=C/[C@@H]1C", "note": "[E7107]", "values": [{"measurement": "Splicing changes relative to DMSO treatment", "setting": "[1]", "result": "increased cassette exon skipping and intron retention"}, {"measurement": "Sensitivity of spliceosomal-mutant AML over isogenic WT in vivo", "setting": "spliceosomal-mutant AML", "result": "differentially sensitive"}, {"measurement": "Eradication of leukemia", "setting": "[2]", "result": "complete eradication could not be achieved"}, {"measurement": "Human leukemic cell burden, mutant versus WT", "setting": "[2]", "result": "greater reduction in human leukemic cell burden"}]}, {"compound": "Cc1ccc(NS(=O)(=O)c2cccc(C#N)c2)c2[nH]cc(C#N)c12", "note": "[E7820]", "values": [{"measurement": "Differential splicing events in SF3B1^K700E cells versus SF3B1 wild-type", "setting": "[1]; 1 μM E7820", "result": "greater number of differential splicing events"}, {"measurement": "Splicing of SUPT6H, hnRNPH and SRSF10 mRNAs", "setting": "[1]; E7820 exposure", "result": "intron retention that was most pronounced in spliceosomal mutant cells"}, {"measurement": "Splicing changes relative to DMSO treatment", "setting": "[1]", "result": "increased cassette exon skipping and intron retention"}, {"measurement": "Changes in splicing, E7820 versus E7107", "setting": "[1]; equipotent non-toxic doses, within each cell type and splicing category", "result": "greater changes in splicing"}, {"measurement": "Sensitivity (cell viability) of most cell lines", "setting": "[3]", "result": "sub-micromolar sensitivity"}, {"measurement": "Preferential sensitivity of spliceosomal mutant cells to growth inhibition over wild-type", "setting": "[4]", "result": "preferentially sensitive"}, {"measurement": "IC50", "setting": "parental K562 cells", "result": 1000, "unit": "nM"}, {"measurement": "Degradation of RBM39", "setting": "RBM39", "result": "dose-dependent degradation of RBM39"}]}, {"compound": "O=C(NC[C@H](O)CN1CCc2ccccc2C1)c1ccnc(NC2CCC2)c1", "note": "[GSK591]", "values": [{"measurement": "Sensitivity of Srsf2-mutant cells versus wildtype", "setting": "[5]", "result": "more sensitive"}]}, {"compound": "CC(C)Oc1ccc(-c2c[nH]cc2CN(C)CCN)cc1", "note": "[MS-023]", "values": [{"measurement": "Sensitivity of Srsf2-mutant cells versus wildtype", "setting": "[5]", "result": "more sensitive"}]}, {"compound": "NS(=O)(=O)c1ccc(S(=O)(=O)Nc2cccc3c(Cl)c[nH]c23)cc1", "note": "[indisulam]", "values": [{"measurement": "Sensitivity (cell viability) of most cell lines", "setting": "[3]", "result": "sub-micromolar sensitivity"}, {"measurement": "Preferential sensitivity of spliceosomal mutant cells to growth inhibition over wild-type", "setting": "[4]", "result": "preferential effects; also recorded: preferentially sensitive"}]}, {"compound": "H3B-8800", "values": [{"measurement": "Preferential effects in spliceosomal-mutant disease", "setting": "[6]", "result": "preferential effects"}, {"measurement": "Splicing fidelity", "setting": "[6]", "result": "dose-dependent reductions in splicing fidelity"}]}]}
